Each structure is given as a SMILES string.

The record followed here is US20110086834A1, “ALKYNYL ALCOHOLS AS KINASE INHIBITORS” (AMGEN INC., priority 2008, published 2011).

T1 sequence (Q99558 400-655 limits assumed): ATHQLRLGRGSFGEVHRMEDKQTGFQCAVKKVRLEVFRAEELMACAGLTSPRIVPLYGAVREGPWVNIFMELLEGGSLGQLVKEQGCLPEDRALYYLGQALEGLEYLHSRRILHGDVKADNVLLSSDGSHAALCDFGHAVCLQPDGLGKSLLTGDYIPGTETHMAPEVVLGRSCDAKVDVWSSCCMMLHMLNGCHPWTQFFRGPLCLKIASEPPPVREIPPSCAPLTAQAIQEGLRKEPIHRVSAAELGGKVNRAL

This assay has as its target T1, NIK (Homo sapiens, UniProt Q99558).
T1 construct: Both assays utilize a truncated form of NIK containing only the catalytic domain; made in house; host or cells: baculovirus expression system (insect cells implied)
Kind of assay: homogenous time resolved fluorescence (HTRF) assay for NIK Ki measurement. The conditions noted are these: truncated NIK (catalytic domain only), autophosphorylation; 10 nM enzyme; 20, 100, 200 or 500 μM ATP; room temperature, 2 hours; read-out: Ki activity in the homogenous time resolved fluorescence (HTRF) assay for NIK. The format is biochemical. A general note: Time-resolved FRET reads energy transfer from a long-lived donor to a nearby acceptor.
As to `CNc1ncc2c(n1)-c1c(nc3ccc(C#CC(C)(C)O)cn13)CCC2` [Example 252, 2-methyl-4-(2-(methylamino)-6,7-dihydro-5H-pyrido[1″,2″:1′,2′]imidazo[4′,′:6,7]-cyclohepta[1,2-d]pyrimidin-11-yl)-3-butyn-2-ol], the Ki was 1000 to 30000 nM. The value for `COCCOc1cnc(N)nc1-c1c[nH]c2c(F)cc(C#CC3(O)CCCC3)cc12` [Example 229, 1-((3-(2-Amino-5-(2-methoxyethoxy)-4-pyrimidinyl)-7-fluoro-1H-indol-5-yl)ethynyl)cyclopentanol] was < 1000 nM; that for `CC(O)(C#Cc1ccc2c(c1)N(c1ccncc1)CC2(C)C)c1ccccn1` (stereo not drawn) [Example 310, 4-(3,3-Dimethyl-1-(4-pyridinyl)-2,3-dihydro-1H-indol-6-yl)-2-(2-pyridinyl)-3-butyn-2-ol] was < 1000 nM. `CC(O)(C#Cc1ccc(O[C@@H]2CCOC2)c(Nc2nc(N)ncc2Cl)c1)c1nccs1` (stereo partly drawn) [Example 159]: the inhibitory constant (Ki) is < 1000 nM. Next, `COc1cc(Nc2nccc(-n3ccc4ccc(C#CC5(O)CCCC5)cc43)n2)cc(OC)c1OC` [Example 259, 1-((1-(2-((3,4,5-tris(methyloxy)phenyl)amino)-4-pyrimidinyl)-1H-indol-6-yl)-ethynyl)cyclopentanol]: < 1000 nM; `CNc1ncc2c(n1)-c1c(nc3ccc(C#CC4(O)CCCC4)cn13)CCC2` [Example 251, 1-((2-(methylamino)-6,7-dihydro-5H-pyrido[1″,2″:1′,2′]imidazo[4′,5′:6,7]-cyclohepta[1,2-d]pyrimidin-11-yl)ethynyl)cyclopentanol]: 1000 to 30000 nM; `Nc1nc(N2CCc3ccc(C#CC4(O)CCCC4)cc32)c2nc[nH]c2n1` [Example 72, 1-((1-(2-amino-9H-purin-6-yl)-2,3-dihydro-1H-indol-6-yl)ethynyl)cyclopentanol]: < 1000 nM. Next, `C[C@@](O)(C#Cc1ccc2c(c1)N(c1nc(N)ncc1Cl)CC21CS(=O)(=O)C1)c1nccs1` [Example 213, (2R)-4-(1-(2-Amino-5-chloro-4-pyrimidinyl)-1′,1′-dioxido-1,2-dihydrospiro[indole-3,3′-thietan]-6-yl)-2-(1,3-thiazol-2-yl)-3-butyn-2-ol]: < 1000 nM; `COc1cc(C#CC2(O)CCCC2)cc2c1ccn2-c1ccnc(N)n1` [Example 98, 1-(2-(1-(2-aminopyrimidin-4-yl)-4-methoxy-1H-indol-6-yl)ethynyl)cyclopentanol]: < 1000 nM; `CC(O)(C#Cc1ccc2c(c1)N(c1ncncn1)CC21CCOCC1)c1nccs1` (stereo not drawn) [Example 37, 2-(1,3-thiazol-2-yl)-4-(1-(1,3,5-triazin-2-yl)-1,2,2′,3′,5′,6′-hexahydrospiro[indole-3,4′-pyran]-6-yl)-3-butyn-2-ol]: < 1000 nM. Next, `COCCNC(=O)c1[nH]c2ccc(C#CC(C)(O)c3nccs3)cc2c1-c1ccncn1` (stereo not drawn) [Example 89, 5-(3-hydroxy-3-(thiazol-2-yl)but-1-ynyl)-N-(2-methoxyethyl)-3-(pyrimidin-4-yl)-1H-indole-2-carboxamide]: < 1000 nM; `CC(C)C(=O)n1cc(-c2nc(N)ncc2Cl)c2cc(C#CC3(O)CCCC3)ccc21` [Example 119, 1-(3-(2-amino-5-chloropyrimidin-4-yl)-5-(2-(1-hydroxycyclopentyl)ethynyl)-1H-indol-1-yl)-2-methylpropan-1-one]: < 1000 nM.

On to `COCCOCCn1cc(-c2nc(N)ncc2F)c2cc(C#CC3(O)CCCC3)ccc21` [Example 133, 1-(2-(3-(2-amino-5-fluoropyrimidin-4-yl)-1-(2-(2-methoxyethoxy)ethyl)-1H-indol-5-yl)ethynyl)cyclopentanol], for which the Ki is < 1000 nM. Next, `COC(=O)C(C)(O)C#Cc1ccc2c(c1)N(c1nc(N)ncc1Cl)CC2(C)C` (stereo not drawn) [Example 48, methyl 4-(1-(2-amino-5-chloro-4-pyrimidinyl)-3,3-dimethyl-2,3-dihydro-1H-indol-6-yl)-2-hydroxy-2-methyl-3-butynoate]: < 1000 nM; `Nc1ncc(Cl)c(-c2cnc3ccc(C#CC4(O)CCCC4)cn23)n1` [Example 298, 1-((3-(2-amino-5-chloro-4-pyrimidinyl)imidazo[1,2-a]pyridin-6-yl)ethynyl)-cyclopentanol]: < 1000 nM; `CNc1ncc(Cl)c(-c2c[nH]c3ccc(C#CC4(O)CCCC4)cc23)n1` [Example 112, 1-(2-(3-(5-chloro-2-(methylamino)pyrimidin-4-yl)-1H-indol-5-yl)ethynyl)cyclopentanol]: < 1000 nM. As to `CC(=O)n1cc(-c2nc(N)ncc2Cl)c2cc(C#CC3(O)CCCC3)ccc21` [Example 120, 1-(3-(2-amino-5-chloropyrimidin-4-yl)-5-(2-(1-hydroxycyclopentyl)ethynyl)-1H-indol-1-yl)ethanone], the inhibition constant Ki is < 1000 nM. The value for `COCCC1(C)CN(c2nc(N)ncc2Cl)c2cc(C#CC3(O)CCCC3)ccc21` (stereo not drawn) [Example 64, 1-((1-(2-amino-5-chloro-4-pyrimidinyl)-3-(2-methoxyethyl)-3-methyl-2,3-dihydro-1H-indol-6-yl)ethynyl)cyclopentanol] was < 1000 nM; that for `Cn1c2c(c3cc(C#CC4(O)CCCC4)ccc31)-c1nc(N)ncc1CN(Cc1ccccn1)C2=O` [Example 247, 2-Amino-1′-((1-hydroxycyclopentyl)ethynyl)-8-methyl-6-(2-pyridinylmethyl)-5,8-dihydropyrimido[4′,′:5,6]azepino[3,4-b]indol-7(6H)-one] was < 1000 nM.

Turning to `CC1(CCC#N)CN(c2nc(N)ncc2F)c2cc(C#CC3(O)CCCC3)ccc21` (stereo not drawn) [Example 67, 3-(1-(2-amino-5-fluoro-4-pyrimidinyl)-6-((1-hydroxycyclopentyl)ethynyl)-3-methyl-2,3-dihydro-1H-indol-3-yl)propanenitrile], the inhibition constant Ki is < 1000 nM. Next, `CN1CCC2(CC1)CN(c1nc(N)ncc1Cl)c1cc(C#CC3(O)CCCC3)ccc12` [Example 185, 1-((1-(2-Amino-5-chloro-4-pyrimidinyl)-1′-methyl-1,2-dihydrospiro[indole-3,4′-piperidin]-6-yl)ethynyl)cyclopentanol]: < 1000 nM. On to `Nc1ncc(Cl)c(-c2cn(CC(=O)N3CCOCC3)c3ccc(C#CC4(O)CCCC4)cc23)n1` [Example 128, 2-(3-(2-amino-5-chloropyrimidin-4-yl)-5-(2-(1-hydroxycyclopentyl)ethynyl)-1H-indol-1-yl)-1-morpholinoethanone], for which the inhibition constant (Ki) was < 1000 nM. Next, `O=C(NCCCN1CCOCC1)c1cnccc1Nc1cccc(C#CC2(O)CCCC2)c1` [Example 253, 4-((3-((1-Hydroxycyclopentyl)ethynyl)phenyl)amino)-N-(3-(4-morpholinyl)propyl)-3-pyridinecarboxamide]: 1000 to 30000 nM. The value for `CCN(CC)CCNC(=O)c1ccc(Nc2nccc(N3CCc4ccc(C#CC5(O)CCCC5)cc43)n2)cc1` [Example 262, N-(2-(diethylamino)ethyl)-4-((4-(6-((1-hydroxycyclopentyl)ethynyl)-2,3-dihydro-1H-indol-1-yl)-2-pyrimidinyl)amino)benzamide] was < 1000 nM; that for `CNC(=O)c1cc(N2CCc3ccc(C#CC4(O)CCCC4)cc32)ccn1` [Example 255, 4-(6-((1-hydroxycyclopentyl)ethynyl)-2,3-dihydro-1H-indol-1-yl)-N-methyl-2-pyridinecarboxamide] was 1000 to 30000 nM. Next, `COc1cc(Nc2cc(-n3ccc4ccc(C#CC5(O)CCCC5)cc43)ncn2)cc(OC)c1OC` [Example 258, 1-((1-(6-((3,4,5-tris(methyloxy)phenyl)amino)-4-pyrimidinyl)-1H-indol-6-yl)ethynyl)cyclopentanol]: 1000 to 30000 nM; `CC(C)C(C)(O)C#Cc1ccc2c(c1)N(c1ccnc(N)n1)CC2` (stereo not drawn) [Example 266, 1-(1-(2-Amino-4-pyrimidinyl)-2,3-dihydro-1H-indol-6-yl)-3,4-dimethyl-1-pentyn-3-ol]: 1000 to 30000 nM; `CC(O)(C#Cc1ccc2c(c1)N(c1ccnc(N)n1)CC2)c1ccn[nH]1` (stereo not drawn) [Example 77, 4-(1-(2-Amino-4-pyrimidinyl)-2,3-dihydro-1H-indol-6-yl)-2-(1H-pyrazol-5-yl)-3-butyn-2-ol]: < 1000 nM. As for `Cc1cnc(C(C)(O)C#Cc2ccc3c(c2)N(c2ccncc2)CC3(C)C)s1` (stereo not drawn) [Example 311, 4-(3,3-Dimethyl-1-(4-pyridinyl)-2,3-dihydro-1H-indol-6-yl)-2-(5-methyl-1,3-thiazol-2-yl)-3-butyn-2-ol], the inhibition constant (Ki) was < 1000 nM. The value for `CCc1csc(C(C)(O)C#Cc2ccc3c(c2)N(c2nc(N)ncc2Cl)CC3)c1` (stereo not drawn) [Example 22, 4-(1-(2-amino-5-chloropyrimidin-4-yl)indolin-6-yl)-2-(4-ethylthiophen-2-yl)but-3-yn-2-ol] was < 1000 nM.

Consider `Nc1nccc(-n2ccc3c(O)cc(C#CC4(O)CCCC4)cc32)n1` [Example 99, 1-(2-aminopyrimidin-4-yl)-6-(2-(1-hydroxycyclopentyl)ethynyl)-1H-indol-4-ol], for which the inhibitory constant (Ki) was < 1000 nM.

Take `Nc1ncc2c(n1)-c1c([nH]c3ccc(C#CC4(O)CCCC4)cc13)CCC2` [Example 238, 1-((2-Amino-5,6,7,8-tetrahydropyrimido[4′,′:3,4]cyclohepta[1,2-b]indol-11-yl)ethynyl)cyclopentanol]: the inhibitory constant (Ki) was < 1000 nM.

On to `Cc1ccc(C#CC(C)(O)c2nccs2)cc1Nc1nc(N)ncc1Cl` (stereo not drawn) [Example 160, 4-(3-(2-Amino-5-chloropyrimidin-4-ylamino)-4-methylphenyl)-2-(thiazol-2-yl)but-3-yn-2-ol], for which the Ki is < 1000 nM.

For the compound `COCCOc1cncnc1-c1c[nH]c2ccc(C#CC3(O)CCCC3)cc12` [Example 237, 1-((3-(5-(2-Methoxyethoxy)-4-pyrimidinyl)-1H-indol-5-yl)ethynyl)cyclopentanol], the Ki is < 1000 nM. The value for `C[C@@](O)(C#Cc1ccc2c(c1)N(c1nc(N)ncc1Cl)CC21CCOCC1)c1nccs1` (single isomer, unassigned) [Example 209] was < 1000 nM; that for `Cc1cc([C@@](C)(O)C#Cc2ccc3c(c2)N(c2nc(N)ncc2Cl)CC32CCOCC2)on1` (single isomer, unassigned) [Example 30] was < 1000 nM.

For orientation: Ki means a measure of affinity in units of concentration, obtained from inhibition or displacement.
